Molecular target: T1, human recombinant adrenergic α1D receptor (Homo sapiens, UniProt P25100)
T1 construct: expressed in transfected cells; host or cells: HEK-293
T1 sequence (P25100 1-572): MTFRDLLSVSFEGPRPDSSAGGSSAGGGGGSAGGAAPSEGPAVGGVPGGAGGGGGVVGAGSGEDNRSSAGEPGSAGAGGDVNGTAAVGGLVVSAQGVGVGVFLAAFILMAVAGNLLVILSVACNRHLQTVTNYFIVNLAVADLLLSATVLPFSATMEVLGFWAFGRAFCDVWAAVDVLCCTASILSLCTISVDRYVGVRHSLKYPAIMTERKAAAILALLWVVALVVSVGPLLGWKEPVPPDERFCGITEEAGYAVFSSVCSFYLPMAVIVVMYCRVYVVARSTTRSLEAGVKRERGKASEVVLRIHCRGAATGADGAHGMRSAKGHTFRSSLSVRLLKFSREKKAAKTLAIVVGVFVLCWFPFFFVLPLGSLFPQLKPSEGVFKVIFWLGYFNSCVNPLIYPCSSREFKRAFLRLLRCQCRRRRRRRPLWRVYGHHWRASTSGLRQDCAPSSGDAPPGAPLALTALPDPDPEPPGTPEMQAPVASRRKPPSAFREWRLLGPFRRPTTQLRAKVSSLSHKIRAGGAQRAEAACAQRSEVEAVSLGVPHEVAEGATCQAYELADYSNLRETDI
Assay: Adrenergic α1D radioligand binding ([3H]Prazosin)
Conditions: read-out: Adrenergic (0.1 μM) a1D, percent inhibition of specific binding; compound at 0.1 μM; 0.6 nM [3H]Prazosin
Protocol: Compounds of invention were incubated with 0.6 nM [^3H]Prazosin for 60 min at 25° C. Non-specific binding was estimated in the presence of 10 μM phentolamine. Receptor proteins were filtered and washed, the filters were then counted to determine [^3H]Prazosin specifically bound. […] Compounds of the invention were tested in this biochemical assay and percent inhibition of specific binding was determined.

## CNC(=O)c1cccc(-c2ccc(-n3c4c(c5cc(C)ccc53)CN(C)CC4)nc2)c1 [Compound No. 143, 3-(6-(2,8-dimethyl-3,4-dihydro-1H-pyrido[4,3-b]indol-5(2H)-yl)pyridin-3-yl)-N-methylbenzamide]
  inhibition at 0.1 µM: 72%

Reference: US9187471B2, “Pyrido [4,3-b] indole and pyrido [3,4-b] indole derivatives and methods of use” (Medivation Technologies, Inc., priority 2010, dated 2015)
